Tested on: 186277-243-T-J2-PDC complex spheroid growth
Test: Anticancer human tumor 186277-243-T-J2-PDC patient-derived colon adenocarcinoma cell line growth inhibition [AhR]
Conditions: for IC50: curve of first compound; for viability, T/C: stronger effect = lower value
Summary of the method: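 Agents were dosed in half-log steps down from roughly clinical Cmax, or from 10 microM where Cmax was unknown, alone and with AhR antagonists. Read-out: percent test/control growth of tumor spheroids containing HUVEC and MSC stromal cells.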
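Also: spheroids exposed to compounds for seven days before the viability read.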
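For viability, T/C in this document: luminescent signal used as a stand-in for viable cell amount; 100% = DMSO vehicle control wells.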

`Nc1ncn(C2CC(O)C(CO)S2)c(=O)n1` (stereo not given) + Cc1ccccc1N=Nc1ccc(NC(=O)c2ccnn2C)c(C)c1 was tested, and the IC50 (second compound 0.1 µM) was > 300 nM, the IC50 (second compound 0.316 µM) was > 300 nM and the IC50 (second compound 1 µM) was > 300 nM. For the same molecule, the IC50 (second compound 3.16 µM) was > 300 nM, the IC50 (second compound 10 µM) was > 300 nM and the viability, T/C (second compound 0.1 µM, first compound 0.000949 µM) was 97.2%. The viability, T/C (second compound 0.1 µM, first compound 0.003 µM) was 123%, the viability, T/C (second compound 0.1 µM, first compound 0.00949 µM) was 119% and the viability, T/C (second compound 0.1 µM, first compound 0.03 µM) was 104%. The viability, T/C (second compound 0.1 µM, first compound 0.0949 µM) was 132%, the viability, T/C (second compound 0.1 µM, first compound 0.3 µM) was 111% and the viability, T/C (second compound 0.316 µM, first compound 0.000949 µM) was 106%. It also gave a viability, T/C (second compound 0.316 µM, first compound 0.003 µM) of 106%, a viability, T/C (second compound 0.316 µM, first compound 0.00949 µM) of 105% and a viability, T/C (second compound 0.316 µM, first compound 0.03 µM) of 109%. It also gave a viability, T/C (second compound 0.316 µM, first compound 0.0949 µM) of 109%, a viability, T/C (second compound 0.316 µM, first compound 0.3 µM) of 116% and a viability, T/C (second compound 1 µM, first compound 0.000949 µM) of 103%. The viability, T/C (second compound 1 µM, first compound 0.003 µM) was 109%, the viability, T/C (second compound 1 µM, first compound 0.00949 µM) was 100% and the viability, T/C (second compound 1 µM, first compound 0.03 µM) was 127%. For the same molecule, the viability, T/C (second compound 1 µM, first compound 0.0949 µM) was 127%, the viability, T/C (second compound 1 µM, first compound 0.3 µM) was 108% and the viability, T/C (second compound 3.16 µM, first compound 0.000949 µM) was 108%. The viability, T/C (second compound 3.16 µM, first compound 0.003 µM) was 104%, the viability, T/C (second compound 3.16 µM, first compound 0.00949 µM) was 107% and the viability, T/C (second compound 3.16 µM, first compound 0.03 µM) was 106%. For the same molecule, the viability, T/C (second compound 3.16 µM, first compound 0.0949 µM) was 117%, the viability, T/C (second compound 3.16 µM, first compound 0.3 µM) was 120% and the viability, T/C (second compound 10 µM, first compound 0.000949 µM) was 96.5%. The viability, T/C (second compound 10 µM, first compound 0.003 µM) was 102%, the viability, T/C (second compound 10 µM, first compound 0.00949 µM) was 102% and the viability, T/C (second compound 10 µM, first compound 0.03 µM) was 99.5%. It also gave a viability, T/C (second compound 10 µM, first compound 0.0949 µM) of 93% and a viability, T/C (second compound 10 µM, first compound 0.3 µM) of 90.1%.

From PubChem BioAssay AID1918991 (Molecular Pharmacology Branch, DTP, NCI, 2023)
